Results reported in patent publication US10137181B2, “Isolated donor MHC-derived peptide and uses thereof” (INSERM (INSTITUT NATIONAL DE LA SANTÉ ET DE LA RECHERCHE …, priority 2014, dated 2018).

Assays:
CD8^+CD40Ig Tregs [1] = experiment: MLR coculture assay: CD8+CD40Ig Treg activation (CD25 expression) by donor MHC-derived peptides in the presence of syngeneic pDCs; type: cell-based, rat; conditions: 6 days culture, CpG-matured syngeneic pDCs; for activation of CD8+CD40Ig Tregs (CD25 upregulation), in words: individual peptide, derivatives compared with Bu31
Description: FIG. 1: Analysis of CD8+CD45RClow Tregs activation in response to donor-derived peptide stimulation. (A) CD8+ Tregs were cocultured for 6 days with syngeneic CpG-matured pDCs in the presence of peptides. For each experiment, the percentage of CD25 positive Tregs after 6 days of coculture with pDCs only, was given the value 1. Mean value 1 is equal to 32.85±1.98%. Results are expressed as the ratio±SEM between the percentage of CD25 positive cells after peptide stimulation and percentage of CD25 positive cells in the control condition without peptide. *p<0.05, **p<0.01 and ***p<0.001 versus control condition (value 1.0). n=4 to 18 for each peptide. (B) Analysis of Treg activation in response to Bu31 shorter peptide derivatives. On the left, 15 Bu31-derivatives are detailed and classified by aa sequence length, from 9 aa to 15 aa. The box highlights mismatched aa between the donor and recipient. On the right, Treg activation in response to Bu31-derivatives was analyzed by CD25 expression. CD8+ Tregs were cocultured for 6 days with syngeneic CpG-matured pDCs in the presence of each peptide. Bars represent the ratio between the percentage of CD25 positive cells after peptide stimulation and percentage of CD25 positive cells in the control condition without peptide. *p<0.05, **p<0.01 versus Bu31 condition. n=3 to 14 for each peptide.
(§1) Mixed lymphocyte reaction: For MLR coculture assays, pDCs from LEW.1A naive rats (1.25×10^4 cells), syngeneic CD8^+CD40Ig Tregs (5×10^4 cells) and 120 μg/ml of allogeneic peptides were plated in triplicate in 200 μl of complete RPMI-1640 medium in round-bottom 96 wells plates for 6 days at 37° C., 5% CO2. pDCs were matured with 0.5 μM of CpG ODN 1826.
(§2) Proliferation of CFSE-labeled naive CD4^+CD25^− T cells and phenotype of CD8^+CD45RC^low Tregs were analyzed by flow cytometry on a FACSCanto II cytometer (BD Biosciences) after gating on TCR^+CD4^+ cells or TCR^+CD8^+ cells among live cells (DAPI negative).
(§3) Extracellular and intracellular staining: For extracellular staining, cells were stained with the following mAbs: anti-TCRαβ (R73, Alexa Fluor 647-conjugated), anti-CD8α (OX8, PE-Cy7-conjugated, Ebiosciences), anti-CD4 (W3.25, PE-Cy7-conjugated), anti-CD45RC (OX22, FITC-conjugated), anti-CD28 (JJ319, biotin-labeled), anti-CD71 (OX26, biotin-labeled), anti-CD25 (OX39, biotin-labeled) and anti-MHC-II (OX6, biotin-labeled).
In the rat MHC-mismatched heart allograft model, donors (RT1^u) and recipients (RT1^a) are mismatched for all MHC molecules. We therefore aligned donor and recipient MHC I and II amino acids (aa) sequences and designed 82 overlapping 16-mer peptides matching the polymorphic domains of donor MHC I and II molecules (4-6). Peptides were first grouped into pools of 6 to 8 peptides (30 μg/ml of each peptide) and tested in an in vitro assay where immature or mature syngeneic recipient plasmacytoic dendritic cells (pDCs) and sorted-CD8^+CD40Ig Tregs from CD40Ig-treated long-term allograft bearing recipients were cocultured for 3 or 6 days. With immature pDCs, we observed no significant activation of CD8^+CD40Ig Tregs at day 3 or day 6 with any of the allogeneic pools of peptides. After stimulation with mature pDCs and pools of allogeneic peptides we observed at day 3 a slight upregulation of CD25 expression of a small population of CD8^+CD40Ig Tregs, and at day 6, a significant up-regulation of CD25 expression following allogeneic stimulation.

CD4^+CD25^− T cells [2] = experiment: MLR suppressive assay with peptide-stimulated CD8+CD40Ig Tregs; type: cell-based, rat; conditions: day 6, donor LEW.1W pDCs, 1:1 effector:suppressor, vs Tregs stimulated by a non-activating peptide
Procedure: FIG. 3: Bu31-activated Tregs maintained efficient suppressive activity. Fresh CD8+CD40Ig Tregs and syngeneic CpG-matured pDCs were cocultured for 6 days with either Bu31 or a control peptide. At day 6, Tregs were isolated by cell sorting (TCR+) and their regulatory function was analyzed by measuring their capacity to suppress MLR assay. The relative proportion of naive CFSE-labeled dividing LEW.1A CD4+CD25− T cells after stimulation with donor LEW.1W pDCs was analyzed at day 6 of culture, in the absence or presence of 6 days peptide-stimulated CD8+ Tregs at a 1:1 ratio effector:suppressor. Graphs represent the mean±SEM. *p<0.05 (left). Plots are representative of four independent experiments (right). […]
as §2
Here, we investigated whether Bu31-stimulated CD8^+CD40Ig Tregs could efficiently suppress effector T cell proliferation after 6 days coculture and thus maintained their suppressor activity, compared to CD8^+CD40Ig Tregs stimulated with a non-activating control peptide. […] To evaluate this, we measured the relative proportion of dividing CD4^+CD25^− T cells at day 6 of coculture (FIG. 3).

[3] = system: heart allograft, LEW.1W donors into LEW.1A recipients; experiment: Cardiac allograft survival after in vivo peptide infusion
Procedure: Recipients were either untreated (n=9) or treated with continuous infusion of peptide by i.p mini osmotic pumps (ALZET), delivering from day-7 and for 28 days, either 20.83 μg/hour alone (Bu31 0.5 mg/day: n=6) or 40.66 μg/hour in the LEW.1W/LEW.1A (Du51 1 mg/day: n=5) or combined with a depleting anti-CD8 mAb (OX8) (n=2) or BN/LEW.1A (Du51 1 mg/day (BN/1A): n=4) strains combination.
Animals and cardiac transplantation models: Allotransplantations of heart were performed between whole MHC incompatible LEW.1W (RT1.A^u as donors) and LEW.1A (RT1.A^a as recipients) male rats as previously described (1).
Peptides treatment in vivo: 16-mer peptides were dissolved in 0.4% DMSO/PBS before injection. […] In the second protocol, mini osmotic pumps (ALZET, Cupertino, Calif., USA) were implanted intraperitoneally (i.p) in recipients and delivered continuously either 20.83 or 41.66 μg/hour of 16-mer peptides for 14 days. A first pump was implanted on day −7 before transplantation and was replaced by a second one at day +7, allowing delivery of 14 or 28 mg of peptide per animal for 28 consecutive days. A depleting anti-CD8α mAb (OX8, IgG1, 3 mg/kg) was injected i.p. twice a week from day −7 until rejection. Allografts were monitored daily by palpation and allograft rejection was defined as complete cessation of palpable heart beat.

CD8^+CD40Ig Tregs [4] = experiment: Flow cytometry phenotype of CD8+ Tregs after ex vivo peptide stimulation; type: cell-based, rat; conditions: 6 days of peptide stimulation
Procedure: (§4) FIG. 2: CD8+ Tregs phenotype following ex vivo allopeptide stimulation. (A) Tregs and syngeneic CpG-matured pDCs were cultured for 6 days, alone, with a control peptide or with peptide Bu31. Expression of indicated markers was analyzed on CD8+ Tregs in the culture supernatant by ELISA (A) or by flow cytometry (B) after in vitro stimulation. Graphs represent the mean±SEM. *p<0.05, **p<0.01, n=4 to 7.
as §1, §3
For intracellular staining, cells were then stained for Foxp3 (biotin-labeled, Ebiosciences) using BD cytofix/cytoperm kit (BD Biosciences) according to the manufacturer's instructions.
All biotinylated mAbs were visualized using Streptavidin-PerCP.Cy5.5 (BD Biosciences). A FACSCanto II cytofluorimeter (BD Biosciences) was used to measure fluorescence, and data were analyzed using FlowJo software (Tree Star, Inc. USA, version 7.6.5). Cells were first gated by their morphology and dead cells excluded by selecting DAPI negative viable cells.

CD4^+CD25^− T cells [5] = experiment: In vitro suppressive potential of CD8+CD45RClow Tregs from peptide-treated recipients; type: cell-based, rat; conditions: 6 days culture, donor LEW.1W pDCs, different effector:suppressor ratios
Procedure: FIG. 7. In vitro suppressive potential of CD8^+CD45RC^low Tregs from Bu31-treated recipients. The proliferation of naive CFSE-labeled LEW.1A CD4^+CD25^− T cells stimulated with donor LEW.1W pDCs was analyzed after 6 days of culture, in the presence of LEW.1A CD8^+CD45RC^low Tregs from naive or Bu31-treated recipients at different effector:suppressor ratio. The CD4^+CD25^− T cell proliferation alone was ˜80% and was given the value 100 in each experiment. Graphs represent the mean±SEM of relative CD4^+CD25^− T cell proliferation. *p<0.05.
For MLR suppressive assays, sorted CFSE-labeled CD4^+CD25^− T cells from LEW.1A origin (5×10^4 cells) and allogeneic pDCs isolated from donor LEW.1W animals (1.25×10^4 cells) were plated in triplicate for 6 days in a final volume of 200 μl of completed RPMI-1640 medium in round-bottom 96 wells plates with FACS-sorted freshly purified naive CD8^+CD45RC^low Treg cells or peptide-expanded CD8^+CD40Ig Treg cells (5×10^4 cells).
as §2

CD8^+CD40Ig Tregs [6] = experiment: Cytokine ELISA in Treg/pDC coculture supernatants after peptide stimulation; type: cell-based, rat; conditions: 6 days peptide stimulation with pDCs
Procedure: as §4, §1
Cytokine assays: IFNγ, IL-10 were measured in coculture supernatants using ELISA from BD Biosciences OptEIA, IL-12 and TGFβ using ELISA from Invitrogen and R&D System respectively.

donor splenocytes = experiment: Donor specific alloantibody detection; type: in vivo, rat; conditions: long-term surviving treated recipients vs untreated rats, sera >120 days after transplantation
Procedure: FIG. 6: Anti-donor immune responses. Allo antibody production was evaluated in naive (n=3), grafted untreated (n=3) and long-term […] (n=4) animals. Sera were collected <30 days after rejection or >120 days after transplantation. Sera were incubated with donor splenocytes and analyzed by flow cytometry for IgG, IgG1 or IgG2b Abs production. Graph represents MFI±SEM.
Donor specific alloantibody detection: Alloantibodies were analyzed by cytofluorimetry as described elsewhere (14). Briefly, after digestion by collagenase D and red blood cell lysis, allogeneic spleen cells were incubated with diluted (⅛) heat-inactivated serum, and then with FITC-conjugated goat anti-rat IgG antibodies (H+L chain specific) (Jackson Laboratories), a mouse anti-rat IgG1 MAb (MCA 194, Serotec) or IgG2b (MCA 195, Serotec). […] Cells were analyzed using a FACS Canto II cytofluorimeter (BD Biosciences, Mountain View, Calif.) and the results were expressed as mean channel fluorescence for each serum.

cardiac grafts = experiment: Morphometric analysis of cardiac grafts (chronic rejection); type: in vivo, rat; conditions: long-term surviving peptide-treated recipients
Procedure: Morphometric analysis of cardiac grafts: The upper third of the graft was fixed in paraformaldehyde and embedded in paraffin. Five μm coronal sections were stained with hematoxylin-eosine-safron. Tissues were analyzed by a pathologist blinded to the groups and chronic rejection was evaluated as previously described (16).

**Q.** How did the “activation of CD8+CD40Ig Tregs (CD25 upregulation), in words” value (“activation of CD8+CD40Ig Tregs” below) (CD8^+CD40Ig Tregs [1]) turn out when “LRYDSDVGEYRAVTE (Synthetic 15-mer peptide 31-15)” was run?
**A.** much stronger and significant CD25 upregulation

**Q.** “SDVGEYRAVTELGR (Synthetic 14-mer peptide 31-14)” was tested. Which “activation of CD8+CD40Ig Tregs” value (CD8^+CD40Ig Tregs [1]) did it give?
**A.** much stronger and significant CD25 upregulation

**Q.** For “YLRYDSDVGEYR (Synthetic 12-mer peptide 31-10)”, which “activation of CD8+CD40Ig Tregs” value (CD8^+CD40Ig Tregs [1]) is on record?
**A.** much stronger and significant CD25 upregulation

**Q.** How did the “activation of CD8+CD40Ig Tregs” value (CD8^+CD40Ig Tregs [1]) turn out when “YLRYDSDVGEYRAV (Synthetic 14-mer peptide 31-13)” was run?
**A.** much stronger and significant CD25 upregulation

**Q.** What does the source list for “YLRYDSDVGEYRAVTE (Synthetic Subdominant peptide Bu31) [16-mer from the β1 chain of donor MHC class II RT1.B^u]”?
**A.** upregulation of CD25 expression at the cell surface of CD8+CD40Ig Tregs, ratio of % CD25 positive cells vs. no peptide (CD8^+CD40Ig Tregs [1]; individual 16-mer peptide, mean±SEM): 1.67±0.09 fold; suppressive activity of peptide-stimulated Tregs: relative proportion of dividing CD4+CD25− effector T cells (CD4^+CD25^− T cells [2]): maintained an efficient suppressive activity; prolongation of allograft survival ([3]; 0.5 mg/day i.p. mini-osmotic pumps for 28 days from day -7, monotherapy): not sufficient to induce prolongation of allograft survival; indefinite allograft survival, share of recipients ([3]; 1 mg/day i.p. mini-osmotic pumps for 28 days from day -7, LEW.1W/LEW.1A): 80%; rejection of Brown Norway (BN) third party grafts, time after transplantation ([3]; peptide infusion 1 mg/day, BN/LEW.1A combination): 7 days; CD28 expression on CD8+ Tregs (CD8^+CD40Ig Tregs [4]): upregulation; CD71 expression on CD8+ Tregs (CD8^+CD40Ig Tregs [4]): upregulation; Foxp3 expression in CD8+ Tregs (CD8^+CD40Ig Tregs [4]): no modification; MHC class II expression on CD8+ Tregs (CD8^+CD40Ig Tregs [4]): upregulation; ex vivo suppressive activity of CD8+CD45RClow Tregs from treated recipients on effector CD4+ T cell proliferation (CD4^+CD25^− T cells [5]): superior suppressive activity; IFNγ expression in culture supernatant (CD8^+CD40Ig Tregs [6]): significant increased expression; IL-10 expression in culture supernatant (CD8^+CD40Ig Tregs [6]): no modification; IL-12 expression in culture supernatant (CD8^+CD40Ig Tregs [6]): no modification; TGFβ expression in culture supernatant (CD8^+CD40Ig Tregs [6]): no modification; IgG1 alloantibodies production (donor splenocytes): total inhibition; IgG2b alloantibodies production (donor splenocytes): total inhibition; total IgG alloantibodies production (donor splenocytes): total inhibition; signs of chronic rejection, anatomopathologic analysis of the graft (cardiac grafts): no signs of chronic rejection
